Results on ten compounds are retold here after US5464865A, “4-aryl- and 4-arylthio-5-hydroxy-2(5H)-furanones as inhibitors of phospholipase A2” (Ortho Pharmaceutical Corporation, priority 1993, dated 1995).

The target of assay [1] is T1, human platelet phospholipase A2 (Homo sapiens, UniProt P14555).
T1 construct: a preparation of human platelet phospholipase A2; from tissue; host or cells: human platelets
T1 sequence (P14555 21-144): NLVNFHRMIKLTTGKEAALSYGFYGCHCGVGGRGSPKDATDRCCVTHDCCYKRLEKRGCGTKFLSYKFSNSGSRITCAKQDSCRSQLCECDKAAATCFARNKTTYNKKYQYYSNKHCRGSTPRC
Kind of assay: Inhibition of human platelet phospholipase A2 (14C-oleate E. coli substrate). Type of assay: biochemical. As to conditions: for IC50: pH 7.0, 37°, 60 min incubation, read-out: Inhibition of PLA2, IC50; for inhibition at 50 µM: read-out: Inhibition of PLA2, % Inhibition @ 50 μM. The method, then:
The activity of the compounds of the invention against phospholipase A2 is determined using a preparation of human platelet phospholipase A2 with a specific activity of 180 nmol/min/mg as the enzyme source. Polypropylene 15-ml test tubes are utilized as the reaction vessels. All drug samples are run in duplicate, with "blank" and "control" (no test compound) groups run in triplicate. […] Test compounds are dissolved in DMSO, and diluted to a projected final concentration of either 50 or 10 μM in 550 μl HEPES buffer at pH 7.0. A 1:7 dilution of human platelet PLA2 in HEPES buffer (5 μl) is added to each test tube, followed by gentle vortexing for 3 seconds. The reaction tubes containing drug, buffer, and enzyme are preincubated for 15 min at 37°, followed by the addition of 25 μl of ^14 C-oleate E. coli substrate. Details regarding this substrate may be found in a publication by S. Ghosh and R. Franson, Biochem. Cell. Biol., 70, 43 (1992), and references therein.
The tubes are immediately vortexed at moderate speed for 3 sec, followed by a 60 min incubation at 37° in a shaking water bath. The reaction is stopped by the addition of 3 ml of a 1:2 chloroform-methanol mixture. Additional water (1.5 ml) and chloroform (1.0 ml) are added, followed by vortexing. The lower phase is removed with a polypropylene transfer pipette, and transferred to a 13×100 mm polypropylene test tube. The organic solvent is evaporated with a stream of nitrogen, the residue is redissolved in 30 μl of a 9:1 chloroform-methanol mixture, and the solution is spotted on a channeled polyester-backed silica gel TLC plate, such as those available under the trade name PE SIL G available from Whatman Inc, Clifton, N.J.
The plate is developed with an 80:20:1 mixture of petroleum ether-diethyl ether-acetic acid. […] The plate is scored above the origin, cut along the score with scissors, and the reactant (origin) and product portions of each channel are put into separate scintillation vials. To each vial is added a scintillation cocktail (15 ml), preferably that sold under the trademark ECOLUME by ICN Biomedicals, Irvine Calif. The vials are shaken vigorously for 5 sec, and the radioactive ^14 C in each vial is measured with a scintillation counter, which provides the counts-per-minute (cpm) for each sample. The obtained cpm values are corrected for the "blank" values.
The percentage of phospholipid hydrolyzed is calculated by the formula:
Phospholipid converted=100×cpm products / (cpm products+cpm
The inhibition of phospholipase A2 by the test compounds is expressed as a percent inhibition relative to the control group:
% Inhibition=[…]

The test system of assay [2] is TPA-induced inflammation in the mouse ear. Kind of assay: Topical anti-inflammatory activity: TPA-induced inflammation (edema) in the mouse ear. It is filed as in vivo, mouse (male CD-1). To be noted: for inhibition in vivo at 100 µg/ear: Mus musculus, @ 100 μg, 5-6 h after TPA; for Inhibition of ear edema, IC50: multiple-dose experiment, dose for 50% inhibition of weight gain. The method, then: The topical anti-inflammatory activity of the compounds is determined by measuring the degree of inhibition of TPA-induced inflammation in the mouse ear, using essentially the procedure of C. Van Arman, Clin. Pharmacol. Ther., 16, 900 (1974). Male CD-1 mice are used at seven to nine weeks of age. 12-O-tetradecanoylphorbol acetate ([…] in 20 μl of acetone) is dispensed onto the dorsum of the left ear of each mouse, and the right ear is left untreated. Ten mice so treated serve as the control group. […]
After five to six hours, the animals are sacrificed by CO2 inhalation, the ears are removed, and 7 mm circular punch biopsies of are taken from each ear and weighed. The difference in biopsy weight between treated and untreated ears is determined, and the degree of anti-inflammatory activity is expressed in terms of the percent inhibition of ear weight increase relative to the control group. In multiple-dose experiments, varying amounts of the compound to be tested are applied along with the TPA and the results are expressed as the ED50, the dose at which a 50% inhibition of weight gain is observed.

The next assay concerns PLA2. As to conditions: literature; cited from earlier work.

By IC50 is commonly meant the concentration that gives 50% inhibition. As a reminder, the inhibition is the percentage by which the read-out fell short of the control. What is called inhibition in vivo is how much of the control response was suppressed. Read a high inhibition in vivo as a response far below the control. For `CCCCC/C=C\C/C=C\CCCCCCCCOc1cccc(C2=CC(=O)OC2O)c1` (centres unmarked) [Example 40, (Z,Z)-5-Hydroxy-4-((3-(octadeca-9,12-dienyl)oxy)phenyl)-2(5H)-furanone], in assay [1], the IC50 came to 7 µM and the inhibition at 50 µM was determined as 100%. In assay [2], this compound had an inhibition in vivo at 100 µg/ear of 80%.
In the case of `CCCCCCC#Cc1ccc(C2=CC(=O)OC2O)cc1` (centres unmarked) [Example 54, 5-Hydroxy-4-(4-(1-octynyl)phenyl)-2(5H)-furanone], in assay [1], the IC50 came out at 5 µM and the inhibition at 50 µM was found to be 100%. The same compound returned an inhibition in vivo at 100 µg/ear in assay [2] of 9%.
As for `CC1=C(CC/C=C(\C)COc2ccc(C3=CC(=O)OC3O)cc2)C(C)(C)CCC1` (centres unmarked) [Example 15, (E)-5-Hydroxy-4-(4-(2-methyl-5-(2,6,6-trimethyl-1-cyclohexen-1-yl)-2-pentenyloxy)phenyl)-2(5H)-furanone], the inhibition at 50 µM in assay [1] came to 94%. The compound further showed an inhibition in vivo at 100 µg/ear in assay [2] of 49%.
The matching figures for `C=CCc1ccc(C2=CC(=O)OC2O)cc1O` (centres unmarked) [Example 41, 5-Hydroxy-4-(3-hydroxy-4-(2-propenyl)phenyl)-2(5H)-furanone]: 0% and 64%.
In the case of `CC1=C(CCCCCCCOc2ccc(C3=CC(=O)OC3O)cc2)C(C)(C)CCC1` (centres unmarked) [Example 27, 5-Hydroxy-4-(4-(7-(2,6,6-trimethyl-1-cyclohexen-1-30 yl)heptyloxy)phenyl)-2(5H)-furanone], in assay [1], the IC50 turned out to be 1.4 µM and the inhibition at 50 µM turned out to be 67%. Also, the inhibition in vivo at 100 µg/ear in assay [2] amounted to 35%.
For `O=C1C=C(c2ccc(OCc3ccc(C#Cc4ccccc4)cc3)cc2)C(O)O1` (centres unmarked) [Example 44, 5-Hydroxy-4-(4-((4-(2-phenylethynyl)phenyl)methoxy)phenyl)-2(5H)-furanone], the inhibition at 50 µM in assay [1] came to 90%. In assay [2], this compound returned an inhibition in vivo at 100 µg/ear of 43%.
As for `O=C1C=C(c2ccc(C#Cc3ccccc3)cc2)C(O)O1` (centres unmarked) [Example 55, 5-Hydroxy-4-(4-(2-phenylethynyl)phenyl)-2(5H)-furanone], in assay [1], the IC50 stood at 19 µM and the inhibition at 50 µM was determined as 67%. For the same compound, in assay [2], the inhibition in vivo at 100 µg/ear came out at 79% and the “Inhibition of ear edema, IC50” value was 37 µg.
For `O=C1C=C(c2ccc(C(=O)/C=C/c3ccc4ccccc4c3)cc2)C(O)O1` (centres unmarked) [Example 30, (E)-5-Hydroxy-4-(4-(3-(2-naphthyl)-1-oxo-2-propenyl)phenyl)-2(5H)-furanone] the same measures were 7 µM, 92%, 66% and 80 µg.
The matching figures for `CC1=C(CCC(C)Oc2ccc(C3=CC(=O)OC3O)cc2)C(C)(C)CCC1` (centres unmarked) [Example 39, (E)-5-Hydroxy-4-(4-((1-methyl-3-(2,6,6-trimethyl-1-cyclohexen-1-yl)propyl)oxy)phenyl)-2(5H)-furanone]: 20 µM, 95%, 48% and 94 µg.
As for `CC1=C(CC/C(C)=C/CCC2=CCC(C3=CC(=O)OC3O)OC2O)C(C)(C)CCC1` (centres unmarked) [Manoalide, manoalide], in the assay on PLA2, the “inhibition of PLA2” value is on record as “potent inhibitor of PLA2” and the “nature of PLA2 inhibition” value is on record as “irreversible nature of PLA2 inhibition”.
